Test results from PubChem BioAssay AID1963961 (Molecular Pharmacology Branch, DTP, NCI, 2024).
“And” between values parts separate entries of the source, which are not always exact repeats. Identical values can stand only once.

Test system: K98450-129-R-PDC multicell spheroids, viability
Test: Anticancer human tumor K98450-129-R-PDC patient-derived colon adenocarcinoma cell line growth inhibition [PI3K]
Details: for viability, T/C: stronger effect = lower value
How it was run: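 Stroma-containing spheroids: tumor line, pooled-donor HUVEC, hMSC. Treatments: targeted agents with PI3K inhibitors. Dosing: clinically relevant, half-log spacing, 10 microM ceiling without known Cmax. Read-out: cell viability.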
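Further: spheroids exposed to agents for seven days before read-out.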

Cn1ncc(Cl)c1-c1cc(C(=O)NC(CN)Cc2cccc(F)c2)sc1Cl (centres undefined)
viability, T/C (compound 0.0316 µM): 108% [middle of 4 runs]
viability, T/C (compound 0.1 µM): 98.9% and 101% (2×) and 95.5%
viability, T/C (compound 0.316 µM): 107% [middle of 4 runs]
viability, T/C (compound 1 µM): 98.2% [middle of 4 runs]
viability, T/C (compound 3.16 µM): 92.7% [middle of 4 runs]
IC50 (curve of compound): > 10 µM

CC(=O)c1c(C)c2cnc(Nc3ccc(N4CCNCC4)cn3)nc2n(C2CCCC2)c1=O
viability, T/C (compound 0.000316 µM): 105% [middle of 4 runs]
viability, T/C (compound 0.001 µM): 106% [middle of 4 runs]
viability, T/C (compound 0.00316 µM): 104% [middle of 4 runs]
viability, T/C (compound 0.01 µM): 104% (2×) and 102% and 99.6%
viability, T/C (compound 0.0316 µM): 101% [middle of 4 runs]
viability, T/C (compound 0.1 µM): 95.5% [middle of 4 runs]
IC50 (curve of compound): > 0.1 µM

CCCS(=O)(=O)Nc1ccc(F)c(C(=O)c2c[nH]c3ncc(-c4ccc(Cl)cc4)cc23)c1F
viability, T/C (compound 0.0316 µM): 104% [middle of 4 runs]
viability, T/C (compound 0.316 µM): 116% [middle of 4 runs]
viability, T/C (compound 10 µM): 7.9% [middle of 4 runs]
IC50 (curve of compound): 6.15 µM [middle of 4 runs]

CC1(C)CCC(Nc2ncc(C(F)(F)F)c(-c3c[nH]c4c(P(C)(C)=O)c(C#N)ccc34)n2)CN1 (centres undefined) + CC(Nc1ccc2c(c1)OCCn1cc(N3C(=O)OCC3C(F)F)nc1-2)C(N)=O
IC50 (curve of first compound, second compound 0.00316 µM): > 10 µM
IC50 (curve of first compound, second compound 0.01 µM): > 10 µM
IC50 (curve of first compound, second compound 0.0316 µM): > 10 µM
IC50 (curve of first compound, second compound 0.1 µM): > 10 µM
IC50 (curve of first compound, second compound 0.316 µM): > 10 µM
IC50 (curve of first compound, second compound 1 µM): > 10 µM
viability, T/C (second compound 0.00316 µM, first compound 0.0316 µM): 108%
viability, T/C (second compound 0.00316 µM, first compound 0.1 µM): 103%
viability, T/C (second compound 0.00316 µM, first compound 0.316 µM): 95.8%
viability, T/C (second compound 0.00316 µM, first compound 1 µM): 67.7%
viability, T/C (second compound 0.00316 µM, first compound 3.16 µM): 64.1%
viability, T/C (second compound 0.00316 µM, first compound 10 µM): 63.8%
viability, T/C (second compound 0.01 µM, first compound 0.0316 µM): 116%
viability, T/C (second compound 0.01 µM, first compound 0.1 µM): 98.2%
viability, T/C (second compound 0.01 µM, first compound 0.316 µM): 92.7%
viability, T/C (second compound 0.01 µM, first compound 1 µM): 68.9%
viability, T/C (second compound 0.01 µM, first compound 3.16 µM): 67.2%
viability, T/C (second compound 0.01 µM, first compound 10 µM): 62.2%
viability, T/C (second compound 0.0316 µM, first compound 0.0316 µM): 116%
viability, T/C (second compound 0.0316 µM, first compound 0.1 µM): 109%
viability, T/C (second compound 0.0316 µM, first compound 0.316 µM): 81.5%
viability, T/C (second compound 0.0316 µM, first compound 1 µM): 66.8%
viability, T/C (second compound 0.0316 µM, first compound 3.16 µM): 69.3%
viability, T/C (second compound 0.0316 µM, first compound 10 µM): 65.5%
viability, T/C (second compound 0.1 µM, first compound 0.0316 µM): 105%
viability, T/C (second compound 0.1 µM, first compound 0.1 µM): 107%
viability, T/C (second compound 0.1 µM, first compound 0.316 µM): 82.6%
viability, T/C (second compound 0.1 µM, first compound 1 µM): 66.9%
viability, T/C (second compound 0.1 µM, first compound 3.16 µM): 67.8%
viability, T/C (second compound 0.1 µM, first compound 10 µM): 61.2%
viability, T/C (second compound 0.316 µM, first compound 0.0316 µM): 100%
viability, T/C (second compound 0.316 µM, first compound 0.1 µM): 101%
viability, T/C (second compound 0.316 µM, first compound 0.316 µM): 85.4%
viability, T/C (second compound 0.316 µM, first compound 1 µM): 69.3%
viability, T/C (second compound 0.316 µM, first compound 3.16 µM): 66.7%
viability, T/C (second compound 0.316 µM, first compound 10 µM): 60.7%
viability, T/C (second compound 1 µM, first compound 0.0316 µM): 91.9%
viability, T/C (second compound 1 µM, first compound 0.1 µM): 90.1%
viability, T/C (second compound 1 µM, first compound 0.316 µM): 79.1%
viability, T/C (second compound 1 µM, first compound 1 µM): 67.5%
viability, T/C (second compound 1 µM, first compound 3.16 µM): 69.6%
viability, T/C (second compound 1 µM, first compound 10 µM): 60.6%
